Our source for the IC50 values is patent publication US9809573B2, “Substituted pyridine derivatives useful as GSK-3 inhibitors” (priority 2013, dated 2017).

Assay [1] has as its target GSK3β (Homo sapiens, UniProt P49841). As to the kind of experiment: GSK3β kinase assay (Caliper LabChip3000, fluoresceinated peptide substrate). In kind it is biochemical. The essentials: (§1)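 Reactions run 20 hours at room temperature, stopped with EDTA. Phosphorylated and unphosphorylated fluoresceinated peptide separated electrophoretically on Caliper LabChip3000. Eleven compound concentrations tested; IC50 by non-linear regression.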

In assay [2] the target is GSK3α (Homo sapiens, UniProt P49840). Kind of assay: biochemical. The procedure, abridged:
as §1

Assay [3] relates to pTau. Kind of assay: pTau assay (method not described). In kind it is cell-based.
Where [4] appears, read: first value of the cell, 250 pM enzyme, 20 uM ATP, 20 hours at room temperature, read-out: GSK3β/α (nM): GSK3β IC50.
Setting [5] is: second value of the cell, 250 pM enzyme, 20 uM ATP, 20 hours at room temperature, read-out: GSK3β/α (nM): GSK3α IC50.

Like-named read-outs stand apart in the source and are kept apart here.

Chain of GSK3α (P49840 whole entry, species assumed): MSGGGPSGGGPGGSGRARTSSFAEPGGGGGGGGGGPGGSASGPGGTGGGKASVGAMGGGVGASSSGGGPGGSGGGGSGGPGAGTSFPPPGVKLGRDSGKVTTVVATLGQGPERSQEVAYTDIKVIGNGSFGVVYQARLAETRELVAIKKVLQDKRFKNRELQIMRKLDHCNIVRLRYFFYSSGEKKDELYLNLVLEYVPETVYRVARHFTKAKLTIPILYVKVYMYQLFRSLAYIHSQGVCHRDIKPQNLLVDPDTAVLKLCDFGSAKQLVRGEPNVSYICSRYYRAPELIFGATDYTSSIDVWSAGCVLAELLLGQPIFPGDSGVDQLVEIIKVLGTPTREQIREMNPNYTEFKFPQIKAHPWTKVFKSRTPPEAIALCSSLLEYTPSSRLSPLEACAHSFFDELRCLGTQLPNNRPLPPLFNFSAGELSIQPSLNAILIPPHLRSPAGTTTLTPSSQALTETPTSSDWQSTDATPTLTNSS
Chain of GSK3β (P49841 whole entry, species assumed): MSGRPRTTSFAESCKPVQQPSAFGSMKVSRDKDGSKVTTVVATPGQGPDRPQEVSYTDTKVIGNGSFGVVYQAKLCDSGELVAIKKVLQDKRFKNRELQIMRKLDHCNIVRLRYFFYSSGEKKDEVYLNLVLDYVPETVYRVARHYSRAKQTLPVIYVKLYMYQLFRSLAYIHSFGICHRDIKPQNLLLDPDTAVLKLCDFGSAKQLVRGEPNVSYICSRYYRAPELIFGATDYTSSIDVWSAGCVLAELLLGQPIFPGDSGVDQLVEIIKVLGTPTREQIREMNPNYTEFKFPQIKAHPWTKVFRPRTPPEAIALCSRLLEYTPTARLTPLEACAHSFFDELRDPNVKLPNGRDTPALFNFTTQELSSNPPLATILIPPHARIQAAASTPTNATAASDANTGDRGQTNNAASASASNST

For `COc1cncc(NC(=O)c2ccnc(NC(=O)C3CC3)c2)c1` [Example 13, 2-(Cyclopropanecarboxamido)-N-(5-methoxypyridin-3-yl)isonicotinamide], the IC50 is 13 nM in assay [1] (setting [4]), 7.3 nM in assay [2] (setting [5]) and 550 nM in assay [3] (read-out: pTau).

For `Cc1c(NC(=O)c2ccnc(NC(=O)C3CC3)c2)cnn1C` [Example 175, 2-(cyclopropanecarboxamido)-N-(1,5-dimethyl-1H-pyrazol-4-yl)isonicotinamide], the IC50 in assay [1] (setting [4]) is 68 nM; in assay [2] (setting [5]), 33 nM; in assay [3] (read-out: pTau) it was 3700 nM.

As to `O=C(Nc1cncc(-c2ccccc2F)c1)c1ccnc(NC(=O)C2CC2)c1` [Example 116, 2-(cyclopropanecarboxamido)-N-(5-(2-fluorophenyl)pyridin-3-yl)isonicotinamide], the IC50 in assay [1] turned out to be 0.35 nM; in assay [2], 0.28 nM; in assay [3] (read-out: pTau (nM)) it was 180 nM.

Regarding `COc1cccc(-c2cncc(NC(=O)c3ccnc(NC(=O)C4CC4)c3)c2)n1` [Example 164, 2-(cyclopropanecarboxamido)-N-(6-methoxy-[2,3′-bipyridin]-5′-yl)isonicotinamide], the IC50 in assay [1] (setting [4]) is 6 nM; in assay [2] (setting [5]), 1.4 nM; in assay [3] (read-out: pTau), 270 nM.

Regarding `CCC1(c2cc(Cl)ncc2NC(=O)c2ccnc(NC(=O)C3CCC(F)(F)C3)c2)OCCO1` (stereo not drawn) [Example 238, N-(6-chloro-4-(2-ethyl-1,3-dioxolan-2-yl)pyridin-3-yl)-2-(3,3-difluorocyclopentanecarboxamido)isonicotinamide], the IC50 in assay [1] (setting [4]) was 0.11 nM; in assay [2] (setting [5]), 0.07 nM; in assay [3] (read-out: pTau) it was 8.3 nM.

As for `O=C(Nc1cnccc1N1CCOCC1)c1ccnc(NC(=O)C2CC2)c1` [Example 30, 2-(Cyclopropanecarboxamido)-N-(4-morpholinopyridin-3-yl)isonicotinamide], the IC50 stood at 1 nM in assay [1], 0.54 nM in assay [2] (setting [5]) and 23 nM in assay [3] (read-out: pTau).

Turning to `CC(C)C(=O)Nc1cc(C(=O)Nc2cncc(-c3cc(F)ccc3F)c2)ccn1` [Example 192, N-(5-(2,5-difluorophenyl)pyridin-3-yl)-2-isobutyramidoisonicotinamide], the IC50 in assay [1] was 4.6 nM; in assay [2] (setting [5]), 1.4 nM; in assay [3] (read-out: pTau) it was 94 nM.

`CC(C)(O)c1ccncc1NC(=O)c1ccnc(NC(=O)C2CC2)c1` [Example 16, 2-(Cyclopropanecarboxamido)-N-(4-(2-hydroxypropan-2-yl)pyridin-3-yl)isonicotinamide]: the IC50 in assay [1] turned out to be 0.11 nM; in assay [2] it was 0.2 nM; in assay [3] (read-out: pTau (nM)) it was 2.8 nM.

As to `O=C(Nc1cnc2ccccc2c1)c1ccnc(NC(=O)C2CC2)c1` [Example 5, 2-(Cyclopropanecarboxamido)-N-(quinolin-3-yl)isonicotinamide], the IC50 in assay [1] (setting [4]) is 570 nM; in assay [2] (setting [5]), 230 nM; in assay [3] (read-out: pTau), at least 10000 nM.

As for `O=C(Nc1cncc(-c2cccc3[nH]ccc23)c1)c1ccnc(NC(=O)C2CC2)c1` [Example 147, N-(5-(1H-indol-4-yl)pyridin-3-yl)-2-(cyclopropanecarboxamido)isonicotinamide], the IC50 in assay [1] (setting [4]) came to 27 nM; in assay [2] (setting [5]), 5.9 nM; in assay [3] (read-out: pTau), 950 nM.

Regarding `O=C(Nc1cnccc1C(=O)C(F)(F)F)c1ccnc(NC(=O)C2CC2)c1` [Example 24, 2-(Cyclopropanecarboxamido)-N-(4-(2,2,2-trifluoroacetyl)pyridin-3-yl)isonicotinamide], the IC50 in assay [1] stood at 0.95 nM; in assay [2] it was 1.2 nM; in assay [3] (read-out: pTau (nM)), 110 nM.

With `O=C(Nc1cnccc1-c1ccc(Cl)cc1)c1ccnc(NC(=O)C2CCC(F)(F)C2)c1` (stereo not drawn) [Example 231, N-(4-(4-chlorophenyl)pyridin-3-yl)-2-(3,3-difluorocyclopentanecarboxamido)isonicotinamide], the values for the IC50 in assay [1], in assay [2] (setting [5]) and in assay [3] (read-out: pTau) were 0.46 nM, 0.9 nM and 30 nM, respectively.

In the case of `Cc1cc(-c2ccncc2NC(=O)c2ccnc(NC(=O)C3CC3)c2)cs1` [Example 43, 2-(Cyclopropanecarboxamido)-N-(4-(5-methylthiophen-3-yl)pyridin-3-yl)isonicotinamide], the IC50 was 2.8 nM in assay [1] (setting [4]), 0.85 nM in assay [2] (setting [5]) and 49 nM in assay [3] (read-out: pTau).

With `CC(C)C(=O)Nc1cc(C(=O)Nc2cnccc2-c2ccc(Cl)cc2)ccn1` [Example 186, N-(4-(4-chlorophenyl)pyridin-3-yl)-2-isobutyramidoisonicotinamide], the IC50 in assay [1] amounted to 20 nM; in assay [2] (setting [5]), 6.5 nM; in assay [3] (read-out: pTau) it was 360 nM.

Turning to `CC(C)C(=O)Nc1cc(C(=O)Nc2cnccc2OCCN2CCOCC2)ccn1` [Example 189, 2-Isobutyramido-N-(4-(2-morpholinoethoxy)pyridin-3-yl)isonicotinamide], the IC50 in assay [1] was 2.3 nM; in assay [2] (setting [5]), 1.1 nM; in assay [3] (read-out: pTau) it was 99 nM.

For the compound `O=C(Nc1cncc(-c2ccccc2C(F)(F)F)c1)c1ccnc(NC(=O)C2CC2)c1` [Example 124, 2-(cyclopropanecarboxamido)-N-(5-(2-(trifluoromethyl)phenyl)pyridin-3-yl)isonicotinamide], the values for the IC50 in assay [1] (setting [4]), in assay [2] (setting [5]) and in assay [3] (read-out: pTau) were 12 nM, 6.1 nM and 510 nM, respectively.

Regarding `O=C(Nc1cncc(-c2ccccc2F)n1)c1ccnc(NC(=O)C2CC2)c1` [Example 180, 2-(Cyclopropanecarboxamido)-N-(6-(2-fluorophenyl)pyrazin-2-yl)isonicotinamide], the figures for the IC50 in assay [1] (setting [4]), in assay [2] (setting [5]) and in assay [3] (read-out: pTau) were 6.2 nM, 1.2 nM and 190 nM, respectively.

Turning to `CCC1(c2cc(Cl)ncc2NC(=O)c2ccnc(NC(=O)C(C)C)c2)OCCO1` [Example 191, N-(6-chloro-4-(2-ethyl-1,3-dioxolan-2-yl)pyridin-3-yl)-2-isobutyramidoisonicotinamide], the IC50 in assay [1] (setting [4]) came out at 0.08 nM; in assay [2] (setting [5]), 0.12 nM; in assay [3] (read-out: pTau), 12 nM.

On to `Cc1cncc(NC(=O)c2ccnc(NC(=O)C3CC3)c2)c1` [Example 102, 2-(cyclopropanecarboxamido)-N-(5-methylpyridin-3-yl)isonicotinamide], for which the IC50 in assay [1] came to 9.5 nM; in assay [2] (setting [5]), 5.4 nM; in assay [3] (read-out: pTau), 740 nM.

Take `CC(C)(F)C(=O)Nc1cc(C(=O)Nc2cnccc2-c2ccccc2)ccn1` [Example 205, 2-(2-Fluoro-2-methylpropanamido)-N-(4-phenylpyridin-3-yl)isonicotinamide]: the IC50 in assay [1] is 49 nM; in assay [2] (setting [5]), 52 nM; in assay [3] (read-out: pTau (nM)), 5100 nM.

On to `O=C(Nc1cncc(-c2ccccc2)c1)c1ccnc(NC(=O)C2CC(F)(F)C2)c1` [Example 214, 2-(3,3-difluorocyclobutanecarboxamido)-N-(5-phenylpyridin-3-yl)isonicotinamide], for which the figures for the IC50 in assay [1], in assay [2] (setting [5]) and in assay [3] (read-out: pTau) were 4.1 nM, 2.9 nM and 490 nM, respectively.

In the case of `O=C(Nc1cncc(-c2cccc(N3CCOCC3)c2)c1)c1ccnc(NC(=O)C2CC2)c1` [Example 156, 2-(cyclopropanecarboxamido)-N-(5-(3-morpholinophenyl)pyridin-3-yl)isonicotinamide], the IC50 in assay [1] (setting [4]) turned out to be 11 nM; in assay [2] (setting [5]), 3.6 nM; in assay [3] (read-out: pTau), 420 nM.

Consider `NC(=O)c1cncc(NC(=O)c2ccnc(NC(=O)C3CC3)c2)c1` [Example 105, 5-(2-(cyclopropanecarboxamido)isonicotinamido)nicotinamide], for which the IC50 is 6.5 nM in assay [1] (setting [4]), 3.6 nM in assay [2] (setting [5]) and 6900 nM in assay [3] (read-out: pTau).

With `CC(C)C(=O)Nc1cc(C(=O)Nc2cnccc2C(=O)c2ccccc2)ccn1` [Example 196, N-(4-benzoylpyridin-3-yl)-2-isobutyramidoisonicotinamide], the results for the IC50 in assay [1] (setting [4]), in assay [2] (setting [5]) and in assay [3] (read-out: pTau) were 13 nM, 5.9 nM and 520 nM, respectively.

On to `O=C(Nc1cncc(-c2cccc(OC(F)F)c2)c1)c1ccnc(NC(=O)C2CC2)c1` [Example 157, 2-(cyclopropanecarboxamido)-N-(5-(3-(difluoromethoxy)phenyl)pyridin-3-yl)isonicotinamide], for which the figures for the IC50 in assay [1] (setting [4]), in assay [2] (setting [5]) and in assay [3] (read-out: pTau) were 7.9 nM, 3.3 nM and 670 nM, respectively.

As for `O=C(Nc1cncc(-n2ccnc2)c1)c1ccnc(NC(=O)C2CC2)c1` [Example 119, N-(5-(1H-imidazol-1-yl)pyridin-3-yl)-2-(cyclopropanecarboxamido)isonicotinamide], the IC50 was 2.4 nM in assay [1] (setting [4]), 1 nM in assay [2] (setting [5]) and 410 nM in assay [3] (read-out: pTau).

For `O=C(Nc1c(-c2ccccc2)ccnc1Cl)c1ccnc(NC(=O)C2CC2)c1` [Example 59, N-(2-chloro-4-phenylpyridin-3-yl)-2-(cyclopropanecarboxamido)isonicotinamide], the IC50 is 78 nM in assay [1] (setting [4]), 70 nM in assay [2] (setting [5]) and 8200 nM in assay [3] (read-out: pTau).

Consider `O=C(Nc1cnccc1-c1cc(Br)cc(Br)c1)c1ccnc(NC(=O)C2CC2)c1` [Example 167, 2-(cyclopropanecarboxamido)-N-(4-(3,5-dibromophenyl)pyridin-3-yl)isonicotinamide], for which the IC50 was determined as 20 nM in assay [1] (setting [4]), 9.3 nM in assay [2] (setting [5]) and 5500 nM in assay [3] (read-out: pTau).

Take `O=C(Nc1cncc(-c2cccc(Cl)c2)c1)c1ccnc(NC(=O)C2CC2)c1` [Example 155, N-(5-(3-chlorophenyl)pyridin-3-yl)-2-(cyclopropanecarboxamido)isonicotinamide]: the IC50 turned out to be 9.1 nM in assay [1] (setting [4]), 3.3 nM in assay [2] (setting [5]) and 770 nM in assay [3] (read-out: pTau).

In the case of `O=C(Nc1cnccc1-c1ccc(I)cc1)c1ccnc(NC(=O)C2CC2)c1` [Example 169, 2-(cyclopropanecarboxamido)-N-(4-(4-iodophenyl)pyridin-3-yl)isonicotinamide], the IC50 was 2.8 nM in assay [1] (setting [4]), 1.5 nM in assay [2] (setting [5]) and 170 nM in assay [3] (read-out: pTau).
